The subject of test [1] is Aβ40 in conditioned medium of cells stably expressing Amyloid Precursor Protein (APP). Description: In vitro BACE cell-based assay (HEK cell assay), Aβ40 sandwich ELISA. Conditions: Homo sapiens, HEK293, 24 h, inhibition of Aβ40, 24 h incubation, read-out: HEK cell assay (IC50 class). A digest of the protocol: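 APP-stably expressing cells (40K/well) grown 24 h, then treated 24 h with 10-point doses from 100 μM or 10 μM top (0.1% DMSO). Secreted Aβ40 quantified by sandwich ELISA (pAb40 capture, biotinylated 6E10 detection, europium time-resolved fluorescence); IC50 from percent inhibition versus concentration.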
Background: An ELISA detects its analyte on a solid surface through an enzyme-linked reagent.

Test [2] deals with BACE1 (Homo sapiens, UniProt P56817). Description: In vitro enzymatic BACE FRET assay. The test is classed as biochemical. Conditions: beta secretase enzyme 0.2 nM, FRET substrate 50 nM, pH 4.2; read-out: BACE1 FRET assay (IC50 class). In outline:
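Beta-secretase (0.2 nM) was pre-incubated 1 h with serially diluted inhibitor in 0.05 M acetate pH 4.2, 10% DMSO, 100 uM genapol. Then 50 nM quenched peptide FRET substrate was added for 1 h. The reaction was stopped with Tris to neutral pH and fluorescence read ([…]).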

Structures are written as SMILES.

The values below come from patent publication US8735384B2, “Amino heteroaryl compounds as beta-secretase modulators and methods of use” (Amgen Inc., priority 2010, dated 2014).

For orientation: IC50 means the concentration that gives 50% inhibition.

BACE1, sequence (P56817 46-501, species assumed): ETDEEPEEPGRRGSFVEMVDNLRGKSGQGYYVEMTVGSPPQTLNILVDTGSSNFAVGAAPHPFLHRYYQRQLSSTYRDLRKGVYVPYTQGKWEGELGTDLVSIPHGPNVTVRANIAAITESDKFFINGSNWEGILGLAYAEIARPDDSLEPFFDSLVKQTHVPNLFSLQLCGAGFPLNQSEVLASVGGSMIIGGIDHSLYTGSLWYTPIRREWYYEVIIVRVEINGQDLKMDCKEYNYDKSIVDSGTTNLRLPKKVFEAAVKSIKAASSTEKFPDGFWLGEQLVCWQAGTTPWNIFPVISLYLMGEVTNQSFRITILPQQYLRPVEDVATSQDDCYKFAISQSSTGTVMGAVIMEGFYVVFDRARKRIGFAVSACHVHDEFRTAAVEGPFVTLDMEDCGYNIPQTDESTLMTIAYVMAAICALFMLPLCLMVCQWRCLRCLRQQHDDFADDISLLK

With `Cc1cccc(C(=O)N2CCC[C@@H](C)C2)c1-c1ccc2nc(N)c(N3CCOCC3)cc2c1` [Example 77, (R)-(2-(2-amino-3-morpholinoquinolin-6-yl)-3-methylphenyl)(3-methylpiperidin-1-yl)methanone], the values for the 50% inhibitory concentration (IC50) in test [1] and in test [2] were 1010 to 5000 nM and less than 100 nM, respectively.
As to `Nc1nc2ccc(-c3ccccc3C(=O)c3ccccc3)cc2cc1N1CCOCC1` [Example 151, (2-(2-amino-3-morpholinoquinolin-6-yl)phenyl)(phenyl)methanone], the results for the IC50 in test [1] and in test [2] were 1010 to 5000 nM and 100 to 500 nM, respectively.
In the case of `COc1ccccc1C(=O)c1cccc(C)c1-c1ccc2nc(N)c(C3CCOCC3)cc2c1` [Example 212, (2-(2-amino-3-(tetrahydro-2H-pyran-4-yl)quinolin-6-yl)-3-methylphenyl)(2-methoxyphenyl)methanone], the IC50 in test [1] and in test [2] was less than 100 nM in each case.
For the compound `COc1cccc(C(=O)c2cccc(C)c2-c2ccc3nc(N)c(N4CCOCC4)cc3c2)c1` [Example 177, (2-(2-amino-3-morpholinoquinolin-6-yl)-3-methylphenyl)(3-methoxyphenyl)methanone], the IC50 in test [1] was in the range of 1010 to 5000 nM; in test [2], 100 to 500 nM.
On to `Cc1cccc(C(=O)N(C)c2ccccc2)c1-c1ccc2nc(N)c(N3CCOCC3)cc2c1` [Example 126, 2-(2-amino-3-morpholinoquinolin-6-yl)-N,3-dimethyl-N-phenylbenzamide], for which the 50% inhibitory concentration (IC50) fell in the range of 1010 to 5000 nM in test [1] and 100 to 500 nM in test [2].
The corresponding values for `CCC1CN(c2cc3cc(-c4c(C)cccc4C(=O)N4CCCC4)ccc3nc2N)CCO1` (stereo not shown) [Example 21, (2-(2-amino-3-(2-ethylmorpholino)quinolin-6-yl)-3-methylphenyl)(pyrrolidin-1-yl)methanone] are 1010 to 5000 nM and less than 100 nM.
For `Cc1cccc(C(=O)N2CCC(F)(F)CC2)c1-c1ccc2nc(N)c(N3CCOCC3)cc2c1` [Example 109, (2-(2-amino-3-morpholinoquinolin-6-yl)-3-methylphenyl)(4,4-difluoropiperidin-1-yl)methanone] the same measures were 501 to 1000 nM and less than 100 nM.
`Cc1cccc(OCC(C)(C)C)c1-c1ccc2nc(N)c(N3CCOCC3)cc2c1` [Example 52, 6-(2-methyl-6-(neopentyloxy)phenyl)-3-morpholinoquinolin-2-amine]: the IC50 in test [1] was greater than 5000 nM; in test [2], less than 100 nM.
As for `Cc1cccc(C(=O)N(C)CC(C)C)c1-c1ccc2nc(N)c(N3CCOCC3)cc2c1` [Example 104, 2-(2-amino-3-morpholinoquinolin-6-yl)-N-isobutyl-N,3-dimethylbenzamide], the IC50 in test [1] was 501 to 1000 nM; in test [2] it was less than 100 nM.
The corresponding values for `CCCCC(=O)c1cccc(C)c1-c1ccc2nc(N)c(N3CCOCC3)cc2c1` [Example 180, 1-(2-(2-amino-3-morpholinoquinolin-6-yl)-3-methylphenyl)pentan-1-one] are 1010 to 5000 nM and less than 100 nM.
For `Cc1cccc(C(=O)N(C)C)c1-c1ccc2nc(N)c(N3CCOCC3)cc2c1` [Example 134, 2-(2-amino-3-morpholinoquinolin-6-yl)-N,N,3-trimethylbenzamide] the same measures were 1010 to 5000 nM and 100 to 500 nM.
For the compound `Cc1ccccc1-c1ccc2nc(N)c(N3CCOCC3)cc2c1` [Example 218, 3-morpholino-6-o-tolylquinolin-2-amine], the IC50 is greater than 5000 nM in test [1] and 501 to 1000 nM in test [2].
As to `Cc1cccc(C(=O)OC2CCCC2)c1-c1ccc2nc(N)c(N3CCOCC3)cc2c1` [Example 19, cyclopentyl 2-(2-amino-3-morpholinoquinolin-6-yl)-3-methylbenzoate], the IC50 in test [1] is 100 to 500 nM; in test [2], less than 100 nM.
The corresponding values for `Cc1cccc(C(=O)N(C)CC(F)(F)F)c1-c1ccc2nc(N)c(N3CCOCC3)cc2c1` [Example 100, 2-(2-amino-3-morpholinoquinolin-6-yl)-N,3-dimethyl-N-(2,2,2-trifluoroethyl)benzamide] are 1010 to 5000 nM and 100 to 500 nM.
Turning to `CO/N=C(\c1ccccc1)c1cccc(C)c1-c1ccc2nc(N)c(N3CCOCC3)cc2c1` [Example 15, (E)-(2-(2-amino-3-morpholinoquinolin-6-yl)-3-methylphenyl)(phenyl)methanone O-methyl oxime], the IC50 in test [1] was 501 to 1000 nM; in test [2], less than 100 nM.
For `Cc1cccc(C(=O)N2C(C)C=CC2C)c1-c1ccc2nc(N)c(N3CCOCC3)cc2c1` (stereo not shown) [Example 125, (2-(2-amino-3-morpholinoquinolin-6-yl)-3-methylphenyl)(2,5-dimethyl-2,5-dihydro-1H-pyrrol-1-yl)methanone] the same measures were 501 to 1000 nM and less than 100 nM.
As for `Cc1cccc(-n2cc(Cl)c(C)n2)c1-c1ccc2nc(N)c(N3CCOCC3)cc2c1` [Example 34, 6-(2-(4-chloro-3-methyl-1H-pyrazol-1-yl)-6-methylphenyl)-3-morpholinoquinolin-2-amine], the concentration for half-maximal inhibition (IC50) was 1010 to 5000 nM in test [1] and less than 100 nM in test [2].
The corresponding values for `Nc1nc2ccc(-c3c(CCC4CCCCC4)cccc3C(=O)N3CCCC3)cc2cc1N1CCOCC1` [Example 168, (2-(2-amino-3-morpholinoquinolin-6-yl)-3-(2-cyclohexylethyl)phenyl)(pyrrolidin-1-yl)methanone] are less than 100 nM and less than 100 nM.
`COc1ccccc1N(C)C(=O)c1cccc(C)c1-c1ccc2nc(N)c(N3CCOCC3)cc2c1` [Example 139, 2-(2-amino-3-morpholinoquinolin-6-yl)-N-(2-methoxyphenyl)-N,3-dimethylbenzamide]: the IC50 in test [1] is 1010 to 5000 nM; in test [2], less than 100 nM.
On to `CCCC1CCN(C(=O)c2cccc(C)c2-c2ccc3nc(N)c(N4CCOCC4)cc3c2)CC1` [Example 78, (2-(2-amino-3-morpholinoquinolin-6-yl)-3-methylphenyl)(4-propylpiperidin-1-yl)methanone], for which the results for the IC50 in test [1] and in test [2] were greater than 5000 nM and less than 100 nM, respectively.
The corresponding values for `Nc1nc2ccc(-c3cccc(Cl)c3C(=O)N3CCCC3)cc2cc1N1CCOCC1` [Example 141, (2-(2-amino-3-morpholinoquinolin-6-yl)-6-chlorophenyl)(pyrrolidin-1-yl)methanone] are greater than 5000 nM and 1010 to 5000 nM.
In the case of `Cc1cccc(C(=O)N2CCC(F)(F)C2)c1-c1ccc2nc(N)c(C3CCOCC3)cc2c1` [Example 211, (2-(2-amino-3-(tetrahydro-2H-pyran-4-yl)quinolin-6-yl)-3-methylphenyl)(3,3-difluoropyrrolidin-1-yl)methanone], the IC50 was 100 to 500 nM in test [1] and less than 100 nM in test [2].
For the compound `Cc1cccc(N(C)C(=O)CC(C)(C)C)c1-c1ccc2nc(N)c(N3CCOCC3)cc2c1` [Example 50, N-(2-(2-amino-3-morpholinoquinolin-6-yl)-3-methylphenyl)-N,3,3-trimethylbutanamide], the concentration for half-maximal inhibition (IC50) in test [1] lay in the range of 1010 to 5000 nM; in test [2], 501 to 1000 nM.
`Cc1cccc(C(=O)c2ccccc2)c1-c1ccc2nc(N)c(N3CCOCC3)cc2c1` [Example 2, (2-(2-amino-3-morpholinoquinolin-6-yl)-3-methylphenyl)(phenyl)methanone]: the IC50 in test [1] was 1010 to 5000 nM; in test [2], less than 100 nM.
As for `Cc1cccc(C(N)c2ccccn2)c1-c1ccc2nc(N)c(N3CCOCC3)cc2c1` (stereo not shown) [Example 196, 6-(2-(amino(pyridin-2-yl)methyl)-6-methylphenyl)-3-morpholinoquinolin-2-amine], the IC50 in test [1] and in test [2] was 100 to 500 nM in each case.
Turning to `Cc1cccc(C(=O)c2cccc(Cl)c2)c1-c1ccc2nc(N)c(N3CCOCC3)cc2c1` [Example 174, (2-(2-amino-3-morpholinoquinolin-6-yl)-3-methylphenyl)(3-chlorophenyl)methanone], the concentration for half-maximal inhibition (IC50) was 1010 to 5000 nM in test [1] and less than 100 nM in test [2].
For the compound `Nc1nc2ccc(-c3ccc(F)cc3C(=O)N3CCC3)cc2cc1N1CCOCC1` [Example 128, (2-(2-amino-3-morpholinoquinolin-6-yl)-5-fluorophenyl)(azetidin-1-yl)methanone], the concentration for half-maximal inhibition (IC50) is greater than 5000 nM in test [1] and 1010 to 5000 nM in test [2].
Turning to `Cc1cccc(C(=O)N(C)Cc2ccccc2)c1-c1ccc2nc(N)c(N3CCOCC3)cc2c1` [Example 136, 2-(2-amino-3-morpholinoquinolin-6-yl)-N-benzyl-N,3-dimethylbenzamide], the IC50 in test [1] lay within 1010 to 5000 nM; in test [2], 100 to 500 nM.
Take `Cc1cccc(Cc2ccccc2F)c1-c1ccc2nc(N)c(N3CCOCC3)cc2c1` [Example 202, 6-(2-(2-fluorobenzyl)-6-methylphenyl)-3-morpholinoquinolin-2-amine]: the figures for the IC50 in test [1] and in test [2] were 1010 to 5000 nM and less than 100 nM, respectively.
Turning to `Cc1cccc(OCc2ccccc2)c1-c1ccc2nc(N)c(N3CCOCC3)cc2c1` [Example 169, 6-(2-(benzyloxy)-6-methylphenyl)-3-morpholinoquinolin-2-amine], the IC50 in test [1] was greater than 5000 nM; in test [2], less than 100 nM.
The corresponding values for `CCOCC1CCN(C(=O)c2cccc(C)c2-c2ccc3nc(N)c(N4CCOCC4)cc3c2)CC1` [Example 74, (2-(2-amino-3-morpholinoquinolin-6-yl)-3-methylphenyl)(4-(ethoxymethyl)piperidin-1-yl)methanone] are 1010 to 5000 nM and less than 100 nM.
For `C#CCN(C)C(=O)c1cccc(C)c1-c1ccc2nc(N)c(N3CCOCC3)cc2c1` [Example 108, 2-(2-amino-3-morpholinoquinolin-6-yl)-N,3-dimethyl-N-(prop-2-ynyl)benzamide], the IC50 is 501 to 1000 nM in test [1] and less than 100 nM in test [2].
